Structures can show the parent of a compound that is named as a salt.
Legend:
[1] = test system: rat and human malignant cells studied, as well as normal cells; test: Cell proliferation assay (WST-1, OD 450 nm), all cell lines; assay type: cell-based; conditions: data not shown
Protocol: Primary cell lines were prepared from human gliomas (glioblastoma multiforme [GBM] or astrocytoma) or established rat glioma cell lines (RG2, C6 and 9L) were used. Cultured human normal cell lines, brain microvessel endothelial cells (HBMVEC), or fetal astrocytes were used.
Cells (5×10^4 cells) were cultured in each well of 96-well microtiter culture plates and were allowed to achieve confluency to form a monolayer of cells in each well. For dose response studies cells were incubated with different concentrations (1–100 μg/mL) of NS-1619 or minoxidil sulfate for 4 hours at 37° C. in a CO2 (5%) incubator. Cells washed twice carefully with respective medium, and allowed to incubate overnight at 37° C. under 5% CO2. The following day, cells were incubated with WST-1 reagent (Boehringer Mannheim) at 37° C. in a CO2 (5%) incubator for 60–90 minutes, and optical density at 450 nm was measured with a 96-well plate reader. The magnitude of OD indicated the number of viable cells, greater the OD, higher the number of viable cells, correlated a standard curve of cell numbers.

U87 human glioma cells = test: In vitro apoptosis assay (Annexin V-FITC/propidium iodide, FACS); assay type: cell-based; conditions: 5 μM, positive control (FIG. 5C)
Protocol: Human glioma cells (U-87) and HBMVECells were seeded into a 25-mL tissue-culture flask. After 24 h (about 60–70% confluencey), cells were treated with either […] (50 or 100 micrograms/mL) or staurosporine (positive control; 5 μM), a known inducer of apoptosis (Tamaoki, T., et al., Staurosporine, a potent inhibitor of phospholipid/Ca^++ dependent protein kinase, Biochem. Biophys. Res. Commun. 135: 397–402 [1986]; Matsumoto, H., and Sasaki, Y., Staurosporine, a protein kinase C inhibitor interferes with proliferation of arterial smooth muscle cells, Biochem. Biophys. Res. Commun. 158:105–109 [1989]). U-87 cells were returned to the CO2 incubator and incubated overnight. The following day, cells were washed twice with fresh growth medium and cells prepared for FACS analysis as described hereinbelow.
The changes in plasma membrane are one of the earliest events in cell death. In apoptotic cells the membrane phospholipid phosphatidylserine (PS) is translocated from the inner to the outer leaflet of the cell membrane in the early phases of apoptosis. Annexin V is a Ca^2+-dependent, phospholipid-binding protein that binds to PS with high affinity. Consequently, Annexin V (PharMingen) conjugated to a label, such as fluorescein isothiocyanate (FITC) or biotin, serves as a sensitive probe for flow cytometry analysis of cells that are undergoing apoptosis. […] (PharMingen; Vermes, I. et al., A novel assay for apoptosis. Flow cytometric detection of phosphatidylserine expression on early apoptotic cells using fluorescein labelled Annexin V, J. Immunol. Meth. 184:39–51 [1995]). Concurrently, propidium iodide is typically used as a standard flow cytometric viability probe, because the intact cell membranes of viable cells exclude propidium iodide, whereas the cell membranes of dead and damaged cells are permeable to propidium iodide. Cells that stain positive for Annexin V and negative for propidium iodide are undergoing apoptosis; cells that stain positive for both Annexin V and propidium iodide are either at the end stage of apoptosis, are undergoing necrosis, or are already dead; and cells that stain negative for both Annexin V-biotin and propidium iodide are alive and not undergoing measurable apoptosis. Briefly, the cells were washed twice with cold PBS and then resuspended in 1× binding buffer (10 mM HEPES/NaOH, pH 7.4, 140 mM NaCl, 2.5 mM CaCl2; 4° C.) at a concentration of about 1×10^6 cells/mL. A 100-μL aliquot of cell suspension was transferred to 5-mL culture tubes, and 2.5 μL of Annexin V-FITC and 2.5-μL of propidium iodide (PharMingen) were added to each tube. The cell suspensions were gently mixed and incubated for 15 min at room temperature in the dark, after which 400 μL of binding buffer was added to each tube of cells. […]

[2] = test system: implanted RG2 glioma tumor in Wistar rats; test: In vivo apoptosis, intracarotid infusion, implanted tumor tissue (FACS); parameters: species or system rat; conditions: RG2 tumor; 20 μg/kg body mass bolus, positive control (FIG. 8I)
From the text: The changes in plasma membrane are one of the earliest events in cell death. In apoptotic cells the membrane phospholipid phosphatidylserine (PS) is translocated from the inner to the outer leaflet of the cell membrane in the early phases of apoptosis. Annexin V is a Ca^2+-dependent, phospholipid-binding protein that binds to PS with high affinity. Consequently, Annexin V (PharMingen) conjugated to a label, such as fluorescein isothiocyanate (FITC) or biotin, serves as a sensitive probe for flow cytometry analysis of cells that are undergoing apoptosis. […] (PharMingen; Vermes, I. et al., A novel assay for apoptosis. Flow cytometric detection of phosphatidylserine expression on early apoptotic cells using fluorescein labelled Annexin V, J. Immunol. Meth. 184:39–51 [1995]). Concurrently, propidium iodide is typically used as a standard flow cytometric viability probe, because the intact cell membranes of viable cells exclude propidium iodide, whereas the cell membranes of dead and damaged cells are permeable to propidium iodide. Cells that stain positive for Annexin V and negative for propidium iodide are undergoing apoptosis; cells that stain positive for both Annexin V and propidium iodide are either at the end stage of apoptosis, are undergoing necrosis, or are already dead; and cells that stain negative for both Annexin V-biotin and propidium iodide are alive and not undergoing measurable apoptosis. Briefly, the cells were washed twice with cold PBS and then resuspended in 1× binding buffer (10 mM HEPES/NaOH, pH 7.4, 140 mM NaCl, 2.5 mM CaCl2; 4° C.) at a concentration of about 1×10^6 cells/mL. A 100-μL aliquot of cell suspension was transferred to 5-mL culture tubes, and 2.5 μL of Annexin V-FITC and 2.5-μL of propidium iodide (PharMingen) were added to each tube. The cell suspensions were gently mixed and incubated for 15 min at room temperature in the dark, after which 400 μL of binding buffer was added to each tube of cells. The cells were then washed once with 1×binding buffer. Analysis by flow cytometry was then conducted immediately, and no later than within one hour. The resulting analytic FACS graphs were typically divided into four quadrants wherein the upper right (UR) quadrant represented the number of necrotic cells; the lower left (LL) quadrant represented the number of viable cells; the lower right (LR) quadrant represented the number of apoptotic cells; and the upper left (UL) represented cells of an intermediate category, which generally represents cell debris and DNA fragments. The percentage of gated events in each quadrant was used to determine the total percentage of apoptotic and necrotic cells in each cell suspension.
A rat tumor model, which consisted of intracranially implanted RG2 cells (rat glioma cell line) in Wistar rats, was employed to investigate whether any of several potassium channel activators induce selective apoptosis of tumor cells in vivo.
The techniques for RG2 cell propagation and maintenance in tissue culture have been described (Sugita, M. and Black, K. L., Cyclic GMP-specific phosphodiesterase inhibition and intracarotid bradykinin infusion enhances permeability into brain tumors, Cancer Res. 58(5):914–20 [1998]; Inamura et al. [1994]; Nakano, S. et al., Increased brain tumor microvessel permeability after intracarotid bradykinin infusion is mediated by nitric oxide, Cancer Res. 56(17):4027–31 [1996]). Briefly, RG2 cells derived from a rat glioma are kept frozen until use, then are thawed and maintained in a monolayer culture in F12 medium with 10% calf serum.
The Wistar rats (approximately 140–160 g body weight) were anesthetized with intra-peritoneal ketamine (50 mg/kg), and glial cells (1×10^5) were implanted into the right hemisphere, but not the contralateral hemisphere, by intracerebral injection suspended in 5 μL F12 medium (1–2% methylcellulose) by a Hamilton syringe. The implantation coordinates were 3-mm lateral to the bregma and 4.5 mm deep to the dural surface. […]

[3] = test system: contralateral normal brain tissue of Wistar rats with implanted RG2 tumor; test: In vivo apoptosis, intracarotid infusion, contralateral tissue (FACS); conditions: 20 μg/kg body mass bolus, positive control (FIG. 8J)
From the text: The changes in plasma membrane are one of the earliest events in cell death. In apoptotic cells the membrane phospholipid phosphatidylserine (PS) is translocated from the inner to the outer leaflet of the cell membrane in the early phases of apoptosis. Annexin V is a Ca^2+-dependent, phospholipid-binding protein that binds to PS with high affinity. Consequently, Annexin V (PharMingen) conjugated to a label, such as fluorescein isothiocyanate (FITC) or biotin, serves as a sensitive probe for flow cytometry analysis of cells that are undergoing apoptosis. […] (PharMingen; Vermes, I. et al., A novel assay for apoptosis. Flow cytometric detection of phosphatidylserine expression on early apoptotic cells using fluorescein labelled Annexin V, J. Immunol. Meth. 184:39–51 [1995]). Concurrently, propidium iodide is typically used as a standard flow cytometric viability probe, because the intact cell membranes of viable cells exclude propidium iodide, whereas the cell membranes of dead and damaged cells are permeable to propidium iodide. […]

Structure (SMILES) | sensitivity (cell proliferation) [1] | apoptotic cells (U87 human glioma cells) | necrotic cells (U87 human glioma cells) | apoptotic cells [2] | necrotic cells [2] | apoptotic cells [3] | necrotic cells [3]
Nc1cc(N2CCCCC2)nc(N)[n+]1OS(=O)(=O)[O-] [minoxidil sulfate] | insensitive | – | – | – | – | – | –
CN[C@@H]1C[C@H]2O[C@@](C)([C@@H]1OC)n1c3ccccc3c3c4c(c5c6ccccc6n2c5c31)C(=O)NC4 [staurosporin] | – | 31% | 27% | 35% | 17% | 5% | 11%

— patent US7211561B2, “Method for inducing selective cell death of malignant cells by activation of calcium-activated potassium channels (KCa)” (Cedars-Sinai Medical Center, priority 2001, dated 2007)
